In ChEMBL document CHEMBL5634181, “Genome Mining Leads to Diverse Sesquiterpenes with Anti-inflammatory Activity from an Arctic-Derived Fungus” (J Nat Prod, 2024) one finds Activity and inhibition data, which are given here for 16 compounds.

Active and inactive are the calls of the source. The rule behind the calls is not given here.

Series [1] deals with RAW264.7. Nature of the series: Antiproliferative activity against LPS-induced mouse RAW264.7 cells assessed as reduction in cell viability > 40 uM incubated for 24 hrs by CCK-8 assay. It counts as functional, cell-based. On the technique in general: Tetrazolium dyes change colour on reduction, which living cells bring about.
For series [2], the system named is RAW264.7. In words: Anti-inflammatory activity against LPS-Induced mouse RAW264.7 cells assessed as reduction in NO release at 10 uM incubated for 24 hrs. It counts as functional, cell-based.
Series [3] relates to RAW264.7. Nature of the series: Anti-inflammatory activity against LPS-Induced mouse RAW264.7 cells assessed as inhibition rate of NO release at 10 uM incubated for 24 hrs relative to control. Type of series: functional.
Series [4] relates to RAW264.7. In words: Anti-inflammatory activity against LPS-Induced mouse RAW264.7 cells assessed as suppression of NLRP3 expression at 20 to 40 uM by Western blot analysis. It counts as functional, cell-based. The following applies: dose 20-40 µM. Background: Immunoblotting shows a protein as a band on a membrane.
For series [5], the system named is RAW264.7. In words: Anti-inflammatory activity against LPS-induced mouse RAW264.7 cells reduction in IL-6 mRNA level by RT-qPCR analysis. The following applies: dose 20-40 µM. It counts as functional, cell-based.
The species entered for series [6] is Danio rerio. In words: Anti-inflammatory activity against CuSO4-induced transgenic Zebrafish acute inflammation model assessed as zebrafish movement by measuring decrease in total distance at 20 to 40 uM preincubated with CuSO4 for 24 hrs followed by compound addition and measured after 2 hrs by fluorescence microscopic analysis. Type of series: functional, organism-based. The conditions noted are these: dose 20-40 µM.

The subject of series [7] is RAW264.7. Nature of the series: Anti-inflammatory activity against LPS-Induced mouse RAW264.7 cells assessed as suppression of p-JNK expression by Western blot analysis. Type of series: functional, cell-based. The conditions noted are these: dose 20-40 µM.
The species named for series [8] is Danio rerio. In words: Anti-inflammatory activity against CuSO4-induced transgenic Zebrafish acute inflammation model assessed as decrease in TNF-alpha expression at 20 to 40 uM preincubated with CuSO4 for 24 hrs followed by compound addition and measured after 2 hrs by RT-qPCR analysis. It counts as functional, organism-based. The conditions noted are these: dose 20-40 µM. Background: Real-time PCR tracks product formation cycle by cycle.

Series [9] is filed under the species Danio rerio. In words: Anti-inflammatory activity against CuSO4-induced transgenic Zebrafish acute inflammation model assessed as zebrafish movement by measuring average velocity at 20 to 40 uM preincubated with CuSO4 for 24 hrs followed by compound addition and measured after 2 hrs by fluorescence microscopic analysis. It counts as functional, organism-based. The conditions noted are these: dose 20-40 µM.

Series [10] relates to RAW264.7. In words: Anti-inflammatory activity against LPS-induced mouse RAW264.7 cells reduction in IL-18 mRNA level by RT-qPCR analysis. Type of series: functional, cell-based. The conditions noted are these: dose 20-40 µM.
Series [11] has as its system RAW264.7. In words: Cytotoxicity against LPS-induced mouse RAW264.7 cells assessed as effect on cell viability upto to 160 uM incubated for 24 hrs by CCK-8 assay. It counts as toxicity, cell-based. The conditions noted are these: raw264.7, 24 h.
The species named for series [12] is Danio rerio. Nature of the series: Anti-inflammatory activity against CuSO4-induced transgenic Zebrafish acute inflammation model assessed as decrease in migration of inflammatory cells to lateral line at 20 to 40 uM preincubated with CuSO4 for 24 hrs followed by compound addition and measured after 2 hrs by fluorescence microscopic analysis. It counts as functional, organism-based. The following applies: dose 20-40 µM.

Series [13] concerns RAW264.7. In words: Anti-inflammatory activity against LPS-induced mouse RAW264.7 cells reduction in IL-1beta mRNA level by RT-qPCR analysis. Type of series: functional, cell-based. The following applies: dose 20-40 µM.
For series [14], the species on record is Danio rerio. Nature of the series: Anti-inflammatory activity against CuSO4-induced transgenic Zebrafish acute inflammation model assessed as decrease in IL-6 expression at 20 to 40 uM preincubated with CuSO4 for 24 hrs followed by compound addition and measured after 2 hrs by RT-qPCR analysis. Type of series: functional, organism-based. The following applies: dose 20-40 µM.

The species named for series [15] is Danio rerio. In words: Anti-inflammatory activity against CuSO4-induced transgenic Zebrafish acute inflammation model assessed as decrease in IL-1beta expression at 20 to 40 uM preincubated with CuSO4 for 24 hrs followed by compound addition and measured after 2 hrs by RT-qPCR analysis. The following applies: dose 20-40 µM. Type of series: functional, organism-based.

Series [16] relates to RAW264.7. Nature of the series: Anti-inflammatory activity against LPS-Induced mouse RAW264.7 cells assessed as suppression of p-p38 expression by Western blot analysis. It counts as functional, cell-based. The following applies: dose 20-40 µM.
Series [17] has as its system RAW264.7. In words: Anti-inflammatory activity against LPS-Induced mouse RAW264.7 cells assessed as suppression of caspase-1 expression at 20 to 40 uM by Western blot analysis. It counts as functional, cell-based. The following applies: dose 20-40 µM.
For series [18], the species on record is Danio rerio. Nature of the series: Anti-inflammatory activity against CuSO4-induced transgenic Zebrafish acute inflammation model assessed as decrease in NLRP3 expression at 20 to 40 uM preincubated with CuSO4 for 24 hrs followed by compound addition and measured after 2 hrs by RT-qPCR analysis. Type of series: functional, organism-based. The following applies: dose 20-40 µM.

The subject of series [19] is RAW264.7. Nature of the series: Anti-inflammatory activity against LPS-Induced mouse RAW264.7 cells assessed as suppression of p-ERK expression by Western blot analysis. The conditions noted are these: dose 20-40 µM. It counts as functional, cell-based.
The species entered for series [20] is Danio rerio. Nature of the series: Anti-inflammatory activity against CuSO4-induced transgenic Zebrafish acute inflammation model assessed as decrease in caspase-1 expression at 20 to 40 uM preincubated with CuSO4 for 24 hrs followed by compound addition and measured after 2 hrs by RT-qPCR analysis. The following applies: dose 20-40 µM. It counts as functional, organism-based.

Series [21] deals with RAW264.7. In words: Anti-inflammatory activity against LPS-induced mouse RAW264.7 cells reduction in TNF-alpha mRNA level by RT-qPCR analysis. It counts as functional, cell-based. The following applies: dose 20-40 µM.

Consider `CC(C)=CCC[C@](C)(O)[C@@H]1CC=C(C)[C@@H](O)C1`, for which the result with RAW264.7 [1] was inactive. In addition, the outcome with RAW264.7 [2] was Active.

As to `CC(C)=C[C@H]1C[C@@](C)(O)[C@H]2CC=C(C)[C@@H](O)[C@H]2O1`, the result in the series with RAW264.7 [1] was inactive. Besides, in the series with RAW264.7 [2], the outcome was Active.

Regarding `CC1=CC[C@@H]([C@@](C)(O)C/C(C)=C/[C@H](C)O)[C@@H](O)[C@H]1O`, the outcome in the series on RAW264.7 [1] was inactive.

With `C=C1[C@H](O)CC[C@]2(C)CC[C@@H](C(C)(C)O)C[C@@H]12`, in the series with RAW264.7 [1], the result was inactive.

`CC1=CC(=O)C[C@@]2(C)CC[C@H](C(C)(C)O)C[C@H]12`: in the series with RAW264.7 [1], the outcome was inactive. Moreover, in the series on RAW264.7 [2], the result was Active.

Take `C[C@@H]1C[C@H]2[C@@H]3CCC4=CC(=O)C=C[C@]4(C)[C@@]3(F)[C@@H](O)C[C@]2(C)[C@@]1(O)C(=O)CO` [DEXAMETHASONE]: the inhibition at 10 µM in the series with RAW264.7 [3] is 72%. Moreover, the result in the series on RAW264.7 [1] was inactive.

For `CC1=CC[C@@H]2[C@H](O)COC/C(C)=C\[C@@H](O)C[C@]12C`, the outcome in the series on RAW264.7 [1] was inactive.

`CC(C)=C[C@H](O)C[C@]1(C)[C@@H]2C[C@H]1C(C)=CC2=O`: in the series on RAW264.7 [1], the result was inactive.

For `CC(C)=CCC[C@](C)(O)[C@@H]1CC=C(C)[C@@H](O)[C@H]1O`, the outcome in the series on RAW264.7 [1] was inactive.

For `Cc1ccc([C@@](C)(O)C/C=C/C(C)(C)O)cc1`, in the series with RAW264.7 [1], the result was inactive. Moreover, the outcome in the series on RAW264.7 [2] was Active.

Regarding `CC1=CC(=O)[C@H]2C[C@@H]1[C@]2(C)C/C=C/C(C)(C)O`, the outcome with RAW264.7 [1] was Active.

For the compound `C=C1C[C@H](O)C[C@]2(C)CC[C@@H](C(C)(C)O)C[C@@H]12`, the outcome with RAW264.7 [1] was inactive.

As for `CC1=CC[C@@]2(C[C@H]1O)[C@H](C)CC[C@@H]2C(C)CO` (stereo partly specified), the outcome with RAW264.7 [4], in the series filed under Danio rerio [6], in the series listed under Danio rerio [8], in the series filed under Danio rerio [9], in the series filed under Danio rerio [12] and in the series listed under Danio rerio [14] was Active. The result in the series listed under Danio rerio [15], in the series on RAW264.7 [17], in the series filed under Danio rerio [18], in the series on RAW264.7 [2] and in the series listed under Danio rerio [20] was Active. For the same compound, the Activity result in the series on RAW264.7 [5] was “Dose-Dependent Effect”; with RAW264.7 [7], “Dose-Dependent Effect”; with RAW264.7 [10] it was “Dose-Dependent Effect”; in the series on RAW264.7 [11], “Non-Toxic”; in the series with RAW264.7 [13], “Dose-Dependent Effect”; in the series with RAW264.7 [16], “Dose-Dependent Effect”. Further, the Activity entry with RAW264.7 [19] and with RAW264.7 [21] was “Dose-Dependent Effect” in each case. Further, in the series on RAW264.7 [3], the inhibition at 10 µM was 65%. Besides, in the series with RAW264.7 [1], the result was inactive.

Consider `CO[C@]1([C@H](O)[C@@H](O)CC=C(C)C)C=CCC(C)=C1C`, for which the outcome in the series on RAW264.7 [1] was inactive.

Take `CC(C)=C[C@H]1C[C@@](C)(O)[C@@H]2[C@@H](CC=C(C)[C@@H]2O)O1`: the outcome in the series with RAW264.7 [1] was inactive.

For the compound `CC1=C2C[C@H](C(C)(C)O)CC[C@@]2(C)CCC1=O`, the outcome in the series on RAW264.7 [1] was Active.

In general, inhibition refers to how much of the control response was suppressed.
